US10781472B2, “Systems and methods for determining cyclic nucleotide concentration and related pathway activation” (PROMEGA CORPORATION, priority 2005, dated 2020)

Tests used:
[1] = target: dopamine receptor D1 (DRD1) (Homo sapiens, UniProt P21728); conditions: 1 μg DRD1 plasma membranes, 15 min induction (FIG. 10)
Method: Plasma membranes (1 μg of protein in 25 μl of Stimulation Buffer) and 10 μM GDP were added to the wells of a 96-well plate and incubated at room temperature for 10 minutes. Twenty microliters of each compound dilution was added to specific wells. Induction was carried out for 15 minutes at room temperature followed by addition of 40 μl of PKA/Substrate Reagent. The reactions were allowed to incubate for an additional 20 minutes at room temperature followed by addition of 80 μl of Kinase-Glo™ Reagent. Luminescence was read 10 minutes after addition of the Kinase-Glo™ Reagent and output was recorded as relative light units (RLU) and plotted against forskolin concentration using GraphPad Prism® Software Version 4.0.

phosphodiesterase PDE V = phosphodiesterase PDE V (Homo sapiens, UniProt O76074); assay: cGMP-PDE (PDE V) activity in the presence of inhibitor, PKA/Kinase-Glo luminescence; assay type: biochemical; conditions: 15 U PDE V, cGMP substrate, 30 min (FIG. 7B)
Method: A two-fold serial dilution of Zaprinast (20 μM) was made in Stop Buffer without IBMX and ATP, supplemented with 10 μM cGMP. An enzyme solution containing PDE V was also made so that every 12.5 μl of the enzyme solution contained 15 U (Stop Buffer without IBMX and ATP) of the enzyme. An aliquot (12.5 μl) of each dilution was added to the reaction wells and an equal amount of the phosphodiesterase PDEV enzyme solution was added to start the reaction. The plate was incubated for 30 min. at room temperature, followed by addition of 12.5 μl of Stop Buffer supplemented with 1.5 mM IBMX and 4 μM ATP to stop the reaction. An equal volume of a PKA/substrate reagent containing 100 ng/well Holoenzyme-R-II α protein kinase A, 40 μM Kemptide, 40 mM Tris HCl pH 7.5, 20 mM MgCl2, and 0.1 mg/ml BSA was added to each well, the plate was incubated for an additional 20 min., and 50 μl of Kinase-Glo™ Reagent was added.

[2] = target: T1, Holoenzyme-R-II α protein kinase A (Homo sapiens, UniProt P13861); assay: Side by side titration of cAMP and cGMP for activation of PKA; assay type: biochemical; conditions: FIG. 6
T1 construct: purchased BIAFFIN GmbH & Co., Kassel, Germany
T1 sequence (P13861 whole entry): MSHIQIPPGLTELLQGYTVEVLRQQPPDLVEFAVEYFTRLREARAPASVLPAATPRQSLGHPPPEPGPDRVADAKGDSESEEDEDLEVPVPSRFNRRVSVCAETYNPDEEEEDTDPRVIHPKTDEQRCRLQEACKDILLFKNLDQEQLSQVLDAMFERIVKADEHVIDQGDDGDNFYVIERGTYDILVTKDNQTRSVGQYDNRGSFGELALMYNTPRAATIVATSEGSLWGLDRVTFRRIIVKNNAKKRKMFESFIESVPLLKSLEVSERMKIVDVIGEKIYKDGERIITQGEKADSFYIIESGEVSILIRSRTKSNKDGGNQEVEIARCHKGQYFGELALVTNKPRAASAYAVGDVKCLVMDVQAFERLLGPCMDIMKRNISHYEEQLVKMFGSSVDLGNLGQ
Method: Two-fold serial dilutions of cAMP and cGMP (initial concentration of both 40 μM) were made in Stop Buffer without ATP and IBMX, but supplemented with 2 μM ATP. Twenty-five μl of the dilutions were aliquoted into white 96-well plates, followed by the addition of 25 μl of a PKA/substrate reagent containing 100 ng/well Holoenzyme-R-II α protein kinase A, 20 μM Kemptide, 40 mM Tris HCl pH 7.5, 20 mM MgCl2, and 0.1 mg/ml BSA. The reactions were allowed to incubate for 20 min. at room temperature, and 50 μl of Kinase-Glo™ Reagent was added followed by an additional 10 min. incubation. Luminescence was measured 10 min. after addition of the Kinase-Glo™ Reagent and output was recorded as RLUs (n=2) and plotted against cyclic nucleotide (cNMP) concentration using GraphPad Prism® Software Version 4.0.

Chain of dopamine receptor D1 (DRD1) (P21728 whole entry): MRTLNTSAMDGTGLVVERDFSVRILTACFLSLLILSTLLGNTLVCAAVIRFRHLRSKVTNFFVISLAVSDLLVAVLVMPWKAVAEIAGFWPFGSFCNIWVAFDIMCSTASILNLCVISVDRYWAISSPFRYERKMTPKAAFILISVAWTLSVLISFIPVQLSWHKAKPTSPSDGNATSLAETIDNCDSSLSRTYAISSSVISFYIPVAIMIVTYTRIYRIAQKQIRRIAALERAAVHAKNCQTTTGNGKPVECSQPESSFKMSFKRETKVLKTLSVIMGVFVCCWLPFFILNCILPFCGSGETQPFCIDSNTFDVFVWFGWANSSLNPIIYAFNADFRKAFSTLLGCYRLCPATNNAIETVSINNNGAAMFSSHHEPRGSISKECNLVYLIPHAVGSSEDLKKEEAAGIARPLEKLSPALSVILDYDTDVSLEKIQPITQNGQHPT

## Oc1cc2c(cc1O)C(c1ccccc1)CNCC2 (stereo not drawn) [SKF38393, 1-Phenyl-2,3,4,5-tetrahydro-(1H)-3-benzazepine-7,8-diol]
[1]
  luminescent signal as agonist concentration increases (DRD1 activation): luminescent signal decreases

## CCCOc1ccccc1-c1nc2nn[nH]c2c(=O)[nH]1 [Zaprinast]
Phosphodiesterase PDE V
  relative light units as inhibitor amount increases (PDE V inhibition): relative light units decrease

## Nc1nc2c(ncn2[C@@H]2O[C@@H]3COP(=O)(O)O[C@H]3[C@H]2O)c(=O)[nH]1 [cGMP, guanosine 3′, 5′cyclic monophosphate]
[2]
  binding to regulatory subunits of PKA, affinity relative to cAMP: lower affinity than that of cAMP
